# Source: patent US6362207B1, “Methods of treating viral infections with benzimidazoles” (priority 1995, dated 2002)
# Where two headings read alike, the source gives them in different places.
# Key:
# [1] = system: HT29 colon tumor cells; assay: MTT cell viability test, colon tumor cells; assay type: cell-based, human; details: MTT, 5 day incubation
# [2] = system: A549 lung tumor cells; assay: MTT cell viability test, lung tumor cells; assay type: cell-based, human; details: MTT, 5 day incubation
# [3] = system: HT29 (colon) cancer cells; assay: Apoptosis study (TdT assay) and cell growth; assay type: cell-based, human
# Experimental: Summary of test results: The extent of apoptosis is measured in human tumor cell lines after treatment for 1, 2, 3 and 4 days with carbendazim. At each of these time points, the cells are harvested and assayed using the terminal deoxynucleotidyl transferase (TdT) assays. Both microscopy and flow cytometry were used for the TdT assay.
# In MCF7, HT29, B16 and SK-MES cell lines, there was a concentration dependent effect on cell growth. […] After completion of the studies on the MCF7 and HT29 cell lines, it was evident that the 0.1 μg/ml concentration had little effect on either apoptosis or cell growth. Therefore subsequent assays were with 5 μg/ml instead of 0.1 μg/ml.
# [4] = system: DLD-1 (abnormal p53); assay: Selectivity in killing p53 abnormal cell lines, cell counts; assay type: cell-based; details: day 7
# Experimental: (§1) Summary of lest results: Pairs of tumors of the same type were chosen, one expressing normal p53 and the other abnormal p53. Breast lines used were MCF7 for the normal p53, V4B, a MCF7 cells transformed with an empty vector, and VM4K, an MCF7 cells transfected with a vector encoding abnormal p53. In the colorectal cancer model HCT116 with a normal p53 was used and DLD-1 was used as the abnormal p53 cell line. The tumor cells were grown the presence and absence of carbendazim for 7 days. Cell growth rates were determined in each group by counting the cell numbers daily using a Coulter counter.
# [5] = system: HCT116 (normal p53); assay: as above; assay type: cell-based; details: day 7
# Experimental: as §1
# [6] = system: MCF7 (normal p53); assay: as above; assay type: cell-based; details: day 7
# Experimental: as §1
# [7] = system: V4B (MCF7 transformed with empty vector); assay: as above; assay type: cell-based; details: day 7
# Experimental: as §1
# [8] = system: VM4K (MCF7 transfected with abnormal p53); assay: as above; assay type: cell-based; details: day 7
# Experimental: as §1
# [9] = system: P388; assay: P-388 model for leukemia, T/C; assay type: in vivo, mice
# Source text: In the P-388 model for leukemia there was a dose responsive effect and the results were good.
# The NCI Measure of Success is T/C=125.
# [10] = assay type: in vivo
# Source text: Additional in vivo cancer studies are presented in a tabular form below. The data is presented in the following format—dose regimen in parenthesis, dosage in mg/kg: tumor growth suppression (tg supp.), toxic deaths/number of test subjects (deaths), % weight change (wt).
# [11] = system: herpes; assay: In vivo herpes screening test; parameters: species or system mice; details: mouse, in vivo
# Experimental: The positive control was acyclovir at 75 mg/kg dose; 60% of the mice survived with a mean death date of 17.2 days.
# [12] = system: influenza; assay: In vitro influenza model; assay type: cell-based
# [13] = system: herpes; assay: In vitro herpes model; assay type: cell-based
# [14] = DU-145, 4000 mg/kg twice weekly
# [15] = DU-145, 5000 mg/kg twice weekly
# [16] = DU-145, 6000 mg/kg twice weekly
# [17] = HT29 (colon), 2000 mg/kg twice weekly
# [18] = HT29 (colon), 3000 mg/kg twice weekly
# [19] = HT29 (colon), 4000 mg/kg twice weekly
# [20] = HT29 (colon), 5000 mg/kg twice weekly
# [21] = HT29 (colon), 6000 mg/kg twice weekly
# [22] = MCF-7L (breast), 4000 mg/kg twice weekly
# [23] = MCF-7L (breast), 5000 mg/kg twice weekly
# [24] = MX1 xenograft, 4000 mg/kg twice weekly
# [25] = MX1 xenograft, 5000 mg/kg twice weekly
# [26] = MX1 xenograft, 6000 mg/kg twice weekly
# [27] = SK-MES, 4000 mg/kg twice weekly
# [28] = SK-MES, 5000 mg/kg twice weekly
# [29] = SK-MES, 6000 mg/kg twice weekly
structure (smiles),measurement,setting,value
"COC(=O)Nc1nc2ccccc2[nH]1 [carbendazim, 2-methoxycarbonylamino-benzimidazole]",EC-50 Result,"[1]; HT29, first column",0.621 ppm
same,EC-50 Result,"[1]; HT29, second column",0.662 ppm
same,EC-50 Result,"[2]; A549, first column",0.856 ppm
same,EC-50 Result,"[2]; A549, second column",0.836 ppm
same,apoptosis,"[3]; 10 μg/ml, days 3 and 4",> 25%
same,cell growth,[3]; below 10 μg/ml,not largely slowed down
same,"cell counts, % of the control","[4]; DLD1, 1 μg/ml",34%
same,"cell counts, % of the control","[4]; DLD-1, 5 μg/ml",less than 10%
same,"cell counts, % of the control","[4]; DLD-1, 10 μg/ml",less than 10%
same,"cell counts, % of the control","[5]; HCT 116, 1 μg/ml",78%
same,"cell counts, % of the control","[5]; HCT116, 5 μg/ml",less than 10%
same,"cell counts, % of the control","[5]; HCT116, 10 μg/ml",less than 10%
same,"cell counts, % of the control",[6]; 5 μg/ml,45%
same,"cell counts, % of the control",[6]; 10 μg/ml,36%
same,"cell counts, % of the control",[7]; 5 μg/ml,less than 10%
same,"cell counts, % of the control",[7]; 10 μg/ml,less than 10%
same,"cell counts, % of the control",[8]; 5 μg/ml,less than 10%
same,"cell counts, % of the control",[8]; 10 μg/ml,less than 10%
same,T/C,[9]; 500 mg/kg twice weekly,141
same,weight change (%),[9]; 500 mg/kg twice weekly,−0.64%
same,T/C,[9]; 1000 mg/kg twice weekly,176
same,weight change (%),[9]; 1000 mg/kg twice weekly,−4.75%
same,T/C,[9]; 1250 mg/kg twice weekly,124
same,weight change (%),[9]; 1250 mg/kg twice weekly,+1.99%
same,T/C,[9]; 2000 mg/kg twice weekly,169
same,weight change (%),[9]; 2000 mg/kg twice weekly,−11.63%
same,T/C,[9]; 2500 mg/kg twice weekly,169
same,weight change (%),[9]; 2500 mg/kg twice weekly,+3.16%
same,T/C,[9]; 5000 mg/kg twice weekly,198
same,weight change (%),[9]; 5000 mg/kg twice weekly,−0.64%
same,Increased Life Span,"[9]; P388-luekemia, 1000 mg/kg",129%
same,Increased Life Span,"[9]; P388-luekemia, 2000 mg/kg",148%
same,decreased life span,"[9]; P388-luekemia, 4000 mg/kg, printed in column Increased Life Span",9%
same,% weight change (wt),"[10]; A549 (lung), 500 mg/kg",+10%
same,toxic deaths/number of test subjects (deaths),"[10]; A549 (lung), 500 mg/kg",0/10
same,tumor growth suppression (tg supp.),"[10]; A549 (lung), 500 mg/kg",57%
same,toxic deaths/number of test subjects (deaths),"[10]; A549 (lung), 2500 mg/kg",10/10
same,% weight change (wt),[10]; [14],−5%
same,toxic deaths/number of test subjects (deaths),[10]; [14],0/10
same,tumor growth suppression (tg supp.),[10]; [14],52%
same,% weight change (wt),[10]; [15],−8%
same,toxic deaths/number of test subjects (deaths),[10]; [15],1/10
same,tumor growth suppression (tg supp.),[10]; [15],48%
same,% weight change (wt),[10]; [16],−6%
same,toxic deaths/number of test subjects (deaths),[10]; [16],1/10
same,tumor growth suppression (tg supp.),[10]; [16],33%
same,% weight change (wt),[10]; [17],+3%
same,toxic deaths/number of test subjects (deaths),[10]; [17],0/10
same,tumor growth suppression (tg supp.),[10]; [17],36%
same,% weight change (wt),[10]; [18],−6%
same,toxic deaths/number of test subjects (deaths),[10]; [18],2/10
same,tumor growth suppression (tg supp.),[10]; [18],65%
same,% weight change (wt),[10]; [19],−12%
same,toxic deaths/number of test subjects (deaths),[10]; [19],3/10
same,tumor growth suppression (tg supp.),[10]; [19],78%
same,% weight change (wt),[10]; [20],−8%
same,toxic deaths/number of test subjects (deaths),[10]; [20],2/10
same,tumor growth suppression (tg supp.),[10]; [20],79%
same,% weight change (wt),[10]; [21],−25%
same,toxic deaths/number of test subjects (deaths),[10]; [21],9/10
same,tumor growth suppression (tg supp.),[10]; [21],97%
same,% weight change (wt),[10]; [22],−7%
same,toxic deaths/number of test subjects (deaths),[10]; [22],5/10
same,tumor growth suppression (tg supp.),[10]; [22],94%
same,% weight change (wt),[10]; [23],−8%
same,toxic deaths/number of test subjects (deaths),[10]; [23],7/10
same,tumor growth suppression (tg supp.),[10]; [23],100%
same,toxic deaths/number of test subjects (deaths),"[10]; MCF-7L (breast), 6000 mg/kg twice weekly",10/10
same,% weight change (wt),[10]; [24],−1%
same,toxic deaths/number of test subjects (deaths),[10]; [24],0/10
same,tumor growth suppression (tg supp.),[10]; [24],48%
same,% weight change (wt),[10]; [25],−4%
same,toxic deaths/number of test subjects (deaths),[10]; [25],1/10
same,tumor growth suppression (tg supp.),[10]; [25],63%
same,% weight change (wt),[10]; [26],−4%
same,toxic deaths/number of test subjects (deaths),[10]; [26],1/9
same,tumor growth suppression (tg supp.),[10]; [26],70%
same,% weight change (wt),[10]; [27],+3%
same,toxic deaths/number of test subjects (deaths),[10]; [27],2/10
same,tumor growth suppression (tg supp.),[10]; [27],45%
same,% weight change (wt),[10]; [28],+2%
same,toxic deaths/number of test subjects (deaths),[10]; [28],1/10
same,tumor growth suppression (tg supp.),[10]; [28],44%
same,% weight change (wt),[10]; [29],−2%
same,toxic deaths/number of test subjects (deaths),[10]; [29],3/10
same,tumor growth suppression (tg supp.),[10]; [29],69%
same,activity,[11],no activity
same,activity,[12],no activity
same,activity,[13],no activity
